For 24 molecules, Ki and melting point results are on record in patent US20140296212A1, “SUBSTITUTED PHENOXYPROPYLCYCLOAMINE DERIVATIVES AS HISTAMINE-3 (H3) RECEPTOR LIGANDS” (CEPHALON, INC., priority 2009, published 2014).

Bounds are passed on as bounds.

One data set addresses T1, human H3 receptor (Homo sapiens, UniProt Q9Y5N1).
T1 construct: expressed in transfected cells
Description: Human H3 radioligand binding ([3H]-N-alpha-methylhistamine, SPA). To be noted: membranes of CHO cells expressing human H3. An outline of the steps: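 Membranes from H3-expressing cells (10 μg protein/well) in 50 mM Tris HCl pH 7.4, 5 mM MgCl2, 0.1% BSA with ~1 nM [3H]-N-alpha-methylhistamine and compound (0.01 nM–30 μM), SPA beads, 4 h, room temperature, dark. Non-specific binding defined with 10 μM clobenpropit; bound radioligand read by scintillation counting.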

Data set [1] concerns the target T2, rat histamine H3 receptor (Rattus norvegicus, UniProt Q9QYN8).
T2 construct: encoding the entire 445-amino-acid rat histamine H3 receptor; expressed in transfected cells
Description: Rat H3 radioligand binding ([3H]-N-alpha-methylhistamine, SPA). To be noted: membranes of CHO-A3 cells expressing rat H3; [3H]-N-alpha-methylhistamine; read-out: Rat H3 Ki. The method, boiled down: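 Membranes from CHO-A3 cells stably expressing full-length rat H3 receptor (445 aa) incubated with ~1 nM [3H]-N-alpha-methylhistamine and compound (0.01 nM–30 μM) in 50 mM Tris HCl pH 7.4, 5 mM MgCl2, 0.1% BSA, 4 h, room temperature; SPA bead read-out. Non-specific binding defined with 10 μM clobenpropit.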

T1 sequence (Q9Y5N1 whole entry): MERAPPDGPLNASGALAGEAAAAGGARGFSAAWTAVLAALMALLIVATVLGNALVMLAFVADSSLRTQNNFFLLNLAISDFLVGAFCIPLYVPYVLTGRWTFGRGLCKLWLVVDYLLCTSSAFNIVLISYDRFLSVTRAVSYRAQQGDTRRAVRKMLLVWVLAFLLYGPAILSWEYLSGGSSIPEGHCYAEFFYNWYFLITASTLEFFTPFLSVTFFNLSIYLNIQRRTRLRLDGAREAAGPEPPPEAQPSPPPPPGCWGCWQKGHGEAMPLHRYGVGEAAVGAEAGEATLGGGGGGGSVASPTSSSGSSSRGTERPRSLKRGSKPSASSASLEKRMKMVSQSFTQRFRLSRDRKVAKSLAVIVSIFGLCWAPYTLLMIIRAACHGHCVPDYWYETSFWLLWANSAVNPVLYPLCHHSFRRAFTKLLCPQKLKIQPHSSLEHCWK
T2 sequence (Q9QYN8 whole entry): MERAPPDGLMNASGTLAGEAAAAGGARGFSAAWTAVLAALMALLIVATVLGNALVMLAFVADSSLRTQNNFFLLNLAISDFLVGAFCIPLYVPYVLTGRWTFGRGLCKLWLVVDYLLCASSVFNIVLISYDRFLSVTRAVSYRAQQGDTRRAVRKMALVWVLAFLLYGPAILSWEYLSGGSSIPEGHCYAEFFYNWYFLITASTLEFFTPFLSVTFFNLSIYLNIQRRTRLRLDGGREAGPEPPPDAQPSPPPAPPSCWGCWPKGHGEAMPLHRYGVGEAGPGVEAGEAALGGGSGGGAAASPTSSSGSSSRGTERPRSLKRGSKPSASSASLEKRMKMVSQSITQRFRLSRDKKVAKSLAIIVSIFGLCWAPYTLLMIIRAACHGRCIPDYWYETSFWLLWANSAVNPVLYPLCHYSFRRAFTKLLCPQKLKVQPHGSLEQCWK

In general, Ki refers to a measure of affinity in units of concentration, obtained from inhibition or displacement. What is called melting point is the temperature of the solid-liquid transition. Turning to `COC(=O)N1CCN(CC(=O)c2ccc(OCCCN3CCC[C@H]3C)cc2)CC1` [Example 82, 4-(2-{4-[3-((R)-2-Methyl-pyrrolidin-1-yl)-propoxy]-phenyl}-2-oxo-ethyl)-piperazine-1-carboxylic acid methyl ester], the melting point was 208 to 210 °C. Also, at human H3 receptor, the Ki was 0.0001 to 0.1 µM. For the same molecule, the Ki in data set [1] lay within 0.0001 to 0.1 µM.
Molecule `C[C@@H]1CCCN1CCCOc1ccc(C(=O)CN2CCN(C(=O)C3CCCO3)CC2)cc1` (stereo partly drawn) [Example 83, 1-{4-[3-((R)-2-Methyl-pyrrolidin-1-yl)-propoxy]-phenyl}-2-[4-(tetrahydro-furan-2-carbonyl)-piperazin-1-yl]-ethanone] yielded a melting point of 185 to 190 °C. The Ki on human H3 receptor lay in the range of 0.0001 to 0.1 µM. Also, in data set [1], the inhibitory constant (Ki) fell in the range of 0.0001 to 0.1 µM.
The molecule `C[C@@H]1CCCN1CCCOc1ccc(C(=O)CN2CCN(C(=O)c3cccn3C)CC2)cc1` [Example 84, 2-[4-(1-Methyl-1H-pyrrole-2-carbonyl)-piperazin-1-yl]-1-{4-[3-((R)-2-methyl-pyrrolidin-1-yl)-propoxy]-phenyl}-ethanone] came in with a melting point of 221 to 224 °C. For the same molecule, the Ki on human H3 receptor lay in the range of 0.0001 to 0.1 µM. Besides, in data set [1], the Ki lay in the range of 0.0001 to 0.1 µM.
The molecule `C[C@@H]1CCCN1CCCOc1ccc(C(=O)CN2CCNC(=O)C2)cc1` [Example 85, 4-(2-{4-[3-((R)-2-Methyl-pyrrolidin-1-yl)-propoxy]-phenyl}-2-oxo-ethyl)-piperazin-2-one] yielded a melting point of 137 to 145 °C. The same molecule displayed an inhibition constant Ki on human H3 receptor of 0.0001 to 0.1 µM. Further, the Ki in data set [1] lay within 0.0001 to 0.1 µM.
In turn, `CC1(C)CCCN1CCCOc1ccc(C(=O)CN2CCOCC2)cc1` [Example 88, 1-{4-[3-(2,2-Dimethyl-pyrrolidin-1-yl)-propoxy]-phenyl}-2-morpholin-4-yl-ethanone] yielded a melting point of 117 to 120 °C. At human H3 receptor, this molecule came in with an inhibitory constant (Ki) of over 1 µM. Also, in data set [1], the Ki is over 1 µM.
Consider `C[C@@H]1CCCN1CCCOc1ccc(C(=O)CN2CCN(C(=O)C3CC3)CC2)cc1` [Example 89, 2-(4-Cyclopropanecarbonyl-piperazin-1-yl)-1-{4-[3-((R)-2-methyl-pyrrolidin-1-yl)-propoxy]-phenyl}-ethanone], for which the melting point lay in the range of 202 to 204 °C. Besides, the inhibition constant (Ki) on human H3 receptor fell in the range of 0.0001 to 0.1 µM. For the same molecule, the Ki in data set [1] was in the range of 0.0001 to 0.1 µM.
With `C[C@@H]1CCCN1CCCOc1ccc(C(=O)CN2CCN(c3ncccn3)CC2)cc1` [Example 90, 1-{4-[3-((R)-2-Methyl-pyrrolidin-1-yl)-propoxy]-phenyl}-2-(4-pyrimidin-2-yl-piperazin-1-yl)-ethanone], the melting point was in the range of 112 to 114 °C. The molecule also returned a Ki at human H3 receptor of 0.0001 to 0.1 µM. Further, in data set [1], the Ki lay within 0.0001 to 0.1 µM.
With `C[C@@H]1CCCN1CCCOc1ccc(C(=O)CN2CCN(c3ccccc3)CC2)cc1` [Example 91, 1-{4-[3-((R)-2-Methyl-pyrrolidin-1-yl)-propoxy]-phenyl}-2-(4-phenyl-piperazin-1-yl)-ethanone], the melting point lay within 145 to 150 °C. The same molecule displayed an inhibitory constant (Ki) on human H3 receptor of 0.0001 to 0.1 µM. Also, the inhibitory constant (Ki) in data set [1] was in the range of 0.0001 to 0.1 µM.
The molecule `C[C@@H]1CCCN1CCCOc1ccc(C(=O)CN2CCN(C(=O)c3ccc(C(F)(F)F)cc3)CC2)cc1` [Example 92, 1-{4-[3-((R)-2-Methyl-pyrrolidin-1-yl)-propoxy]-phenyl}-2-[4-(4-trifluoromethyl-benzoyl)-piperazin-1-yl]-ethanone] returned a melting point of 227 to 230 °C. On human H3 receptor, this molecule had an inhibition constant Ki of 0.0001 to 0.1 µM. In addition, the inhibition constant (Ki) in data set [1] fell in the range of 0.0001 to 0.1 µM.
In turn, `C[C@@H]1CCCN1CCCOc1ccc(C(=O)CN2CCN(C(=O)C3CCCCC3)CC2)cc1` [Example 93, 2-(4-Cyclohexanecarbonyl-piperazin-1-yl)-1-{4-[3-((R)-2-methyl-pyrrolidin-1-yl)-propoxy]-phenyl}-ethanone] displayed a melting point of 230 to 232 °C. At human H3 receptor, the Ki is 0.0001 to 0.1 µM. For the same molecule, in data set [1], the inhibition constant Ki was 0.0001 to 0.1 µM.
`C[C@@H]1CCCN1CCCOc1ccc(C(=O)CN2CCN(c3ccc(F)cc3)CC2)cc1` [Example 94, 2-[4-(4-Fluoro-phenyl)-piperazin-1-yl]-1-{4-[3-((R)-2-methyl-pyrrolidin-1-yl)-propoxy]-phenyl}-ethanone] registered a melting point of 140 to 145 °C. At human H3 receptor, this molecule showed an inhibition constant Ki of 0.0001 to 0.1 µM. For the same molecule, the inhibitory constant (Ki) in data set [1] fell in the range of 0.0001 to 0.1 µM.
`Cc1cc(C(=O)CN2CCC(F)(F)CC2)cc(C)c1OCCCN1CCC[C@H]1C` [Example 95, 2-(4,4-Difluoro-piperidin-1-yl)-1-{3,5-dimethyl-4-[3-((R)-2-methyl-pyrrolidin-1-yl)-propoxy]-phenyl}-ethanone] had a melting point of 140 to 142 °C. In addition, the Ki on human H3 receptor lay in the range of 0.101 to 0.5 µM. Besides, the Ki in data set [1] is over 1 µM.
For `C[C@@H]1CCCN1CCCOc1c(Cl)cc(C(=O)CN2CCN(C(=O)c3ccccc3)CC2)cc1Cl` [Example 96, 2-(4-Benzoyl-piperazin-1-yl)-1-{3,5-dichloro-4-[3-((R)-2-methyl-pyrrolidin-1-yl)-propoxy]-phenyl}-ethanone] the same measures were 111 °C, 0.0001 to 0.1 µM and 0.101 to 0.5 µM.
The like results for `CC(=O)N1CCN(CC(=O)c2cc(C)c(OCCCN3CCC[C@H]3C)c(C)c2)CC1` [Example 97, 2-(4-Acetyl-piperazin-1-yl)-1-{3,5-dimethyl-4-[3-((R)-2-methyl-pyrrolidin-1-yl)-propoxy]-phenyl}-ethanone] were, in that order, 118 to 119 °C, 0.101 to 0.5 µM and 0.501 to 1 µM.
For `C[C@@H]1CCCN1CCCOc1c(Cl)cc(C(=O)CN2CCC(F)(F)CC2)cc1Cl` [Example 98, 1-{3,5-Dichloro-4-[3-((R)-2-methyl-pyrrolidin-1-yl)-propoxy]-phenyl}-2-(4,4-difluoro-piperidin-1-yl)-ethanone] the same measures were 102 °C, 0.0001 to 0.1 µM and over 1 µM.
With `C[C@@H]1CCCN1CCCOc1c(Cl)cc(C(=O)CN2CCN(C(=O)C3CCCCC3)CC2)cc1Cl` [Example 99, 2-(4-Cyclohexanecarbonyl-piperazin-1-yl)-1-{3,5-dichloro-4-[3-((R)-2-methyl-pyrrolidin-1-yl)-propoxy]-phenyl}-ethanone], the melting point was found to be 168 °C. In addition, the inhibitory constant (Ki) at human H3 receptor lay within 0.0001 to 0.1 µM. In addition, in data set [1], the Ki lay within 0.101 to 0.5 µM.
Molecule `C[C@@H]1CCCN1CCCOc1ccc(C(=O)CN2CCN(C(=O)c3ccc(Cl)cc3)CC2)cc1` [Example 100, 2-[4-(4-Chloro-benzoyl)-piperazin-1-yl]-1-{4-[3-((R)-2-methyl-pyrrolidin-1-yl)-propoxy]-phenyl}-ethanone] returned a melting point of 233 to 236 °C. At human H3 receptor, the Ki lay within 0.0001 to 0.1 µM. The Ki in data set [1] is 0.0001 to 0.1 µM.
`C[C@@H]1CCCN1CCCOc1ccc(C(=O)CN2CCN(C(=O)c3ccc(F)cc3)CC2)cc1` [Example 101, 2-[4-(4-Fluoro-benzoyl)-piperazin-1-yl]-1-{4-[3-((R)-2-methyl-pyrrolidin-1-yl)-propoxy]-phenyl}-ethanone] gave a melting point of 225 to 229 °C. Further, the Ki at human H3 receptor was 0.0001 to 0.1 µM. The Ki in data set [1] lay in the range of 0.0001 to 0.1 µM.
The molecule `C[C@@H]1CCCN1CCCOc1c(Cl)cc(C(=O)CN2CCN(c3ccccc3)CC2)cc1Cl` [Example 102] had a melting point of 168 °C. Besides, on human H3 receptor, the Ki was 0.101 to 0.5 µM. In addition, the Ki in data set [1] is over 1 µM.
For `Cc1cc(C(=O)CN2CCN(c3ncccn3)CC2)cc(C)c1OCCCN1CCC[C@H]1C` [Example 104, 1-{3,5-Dimethyl-4-[3-((R)-2-methyl-pyrrolidin-1-yl)-propoxy]-phenyl}-2-(4-pyrimidin-2-yl-piperazin-1-yl)-ethanone], the melting point is 155 to 160 °C (dec.). At human H3 receptor, the Ki lay in the range of 0.101 to 0.5 µM. Besides, the inhibition constant Ki in data set [1] fell in the range of 0.501 to 1 µM.
As for `C[C@@H]1CCCN1CCCOc1ccc(C(=O)CN2CCN(c3ccc(C(F)(F)F)cc3)CC2)cc1` [Example 105, 1-{4-[3-((R)-2-Methyl-pyrrolidin-1-yl)-propoxy]-phenyl}-2-[4-(4-trifluoromethyl-phenyl)-piperazin-1-yl]-ethanone], the melting point fell in the range of 230 to 233 °C. The same molecule registered an inhibition constant (Ki) at human H3 receptor of 0.0001 to 0.1 µM. In addition, the inhibition constant Ki in data set [1] is 0.0001 to 0.1 µM.
With `Cc1cc(C(=O)CN2CCN(C(=O)c3ccccc3)CC2)cc(C)c1OCCCN1CCC[C@H]1C` [Example 106, 2-(4-Benzoyl-piperazin-1-yl)-1-{3,5-dimethyl-4-[3-((R)-2-methyl-pyrrolidin-1-yl)-propoxy]-phenyl}-ethanone], the melting point lay in the range of 110 to 120 °C. This molecule registered an inhibition constant (Ki) on human H3 receptor of 0.0001 to 0.1 µM. In addition, the Ki in data set [1] was in the range of 0.101 to 0.5 µM.
Take `C[C@@H]1CCCN1CCCOc1ccc(C(=O)CN2CCCc3ccccc32)cc1` [Example 108, 2-(3,4-Dihydro-2H-quinolin-1-yl)-1-{4-[3-((R)-2-methyl-pyrrolidin-1-yl)-propoxy]-phenyl}-ethanone]: the melting point lay within 166 to 168 °C. For the same molecule, the Ki on human H3 receptor is 0.0001 to 0.1 µM. For the same molecule, in data set [1], the Ki lay in the range of 0.0001 to 0.1 µM.
`C[C@@H]1CCCN1CCCOc1ccc(C(=O)CN2CCN(C(=O)c3ccc4ccccc4c3)CC2)cc1` [Example 109, 1-{4-(3-((R)-2-Methyl-pyrrolidin-1-yl)-propoxy]-phenyl}-2-[4-(naphthalene-2-carbonyl)-piperazin-1-yl]-ethanone] returned a melting point of 100.5 to 109.5 °C. For the same molecule, the Ki on human H3 receptor lay within 0.0001 to 0.1 µM. Moreover, the inhibitory constant (Ki) in data set [1] fell in the range of 0.0001 to 0.1 µM.
